Assay results published in patent US20260317319A1, “NOVEL ERGOLINES AND METHODS OF TREATING MOOD DISORDERS” (Gilgamesh Pharma Inc., priority 2023, published 2026).
Read-outs that look alike come from different tables or passages of the source.

Columns and labels:
[1] = in vitro; format: in vitro ADME, rat; conditions: for microsomal CLint: read-out: Intrinsic clearance (Clint); for half-life: read-out: half-life (t1/2)
From the text: RLM Stability Pooled RLM from male Sprague-Dawley rats (Xenotech R1000) were used.

[2] = target: T1, 5-HT2B receptor (Homo sapiens, UniProt P41595); assay: cell-based; format: cell-based; conditions: for EC50: HEK293
T1 construct: expressed in transfected cells; host or cells: HEK293, stably transfected
T1 sequence (P41595 whole entry): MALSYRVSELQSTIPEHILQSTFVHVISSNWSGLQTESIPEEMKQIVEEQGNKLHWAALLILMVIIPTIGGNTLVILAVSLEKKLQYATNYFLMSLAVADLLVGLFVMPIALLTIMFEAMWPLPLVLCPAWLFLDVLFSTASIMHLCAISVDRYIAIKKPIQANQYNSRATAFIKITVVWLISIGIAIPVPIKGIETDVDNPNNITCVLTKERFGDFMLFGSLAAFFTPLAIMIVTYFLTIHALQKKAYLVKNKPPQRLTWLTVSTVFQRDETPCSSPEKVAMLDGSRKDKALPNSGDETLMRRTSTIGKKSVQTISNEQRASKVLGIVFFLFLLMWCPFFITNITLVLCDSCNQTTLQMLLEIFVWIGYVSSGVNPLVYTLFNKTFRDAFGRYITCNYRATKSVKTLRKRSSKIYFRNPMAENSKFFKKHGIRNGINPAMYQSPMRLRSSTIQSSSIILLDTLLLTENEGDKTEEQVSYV
Method in brief: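 FLIPR Tetra fluorescence read-out of calcium flux after compound addition. Receptor-expressing stable lines were used (HEK293 for 2A/2B; CHO with Gα15 for 1A), dye-loaded with Fluo-4 Direct and 2.5 mM final probenecid, 50 min at 37 °C.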

[3] = in vitro; format: in vitro ADME, human; conditions: for microsomal CLint: read-out: Intrinsic clearance (Clint); for half-life: read-out: half-life (t1/2)
[4] = target: T2, 5-HT1B receptor (Homo sapiens, UniProt P28222); assay: cAMP accumulation functional assay at 5-HT1B; format: cell-based; conditions: for Emax: read-out: 5-HT1B % Act @ Max Dose
T2 construct: expressed in transfected cells
T2 sequence (P28222 whole entry): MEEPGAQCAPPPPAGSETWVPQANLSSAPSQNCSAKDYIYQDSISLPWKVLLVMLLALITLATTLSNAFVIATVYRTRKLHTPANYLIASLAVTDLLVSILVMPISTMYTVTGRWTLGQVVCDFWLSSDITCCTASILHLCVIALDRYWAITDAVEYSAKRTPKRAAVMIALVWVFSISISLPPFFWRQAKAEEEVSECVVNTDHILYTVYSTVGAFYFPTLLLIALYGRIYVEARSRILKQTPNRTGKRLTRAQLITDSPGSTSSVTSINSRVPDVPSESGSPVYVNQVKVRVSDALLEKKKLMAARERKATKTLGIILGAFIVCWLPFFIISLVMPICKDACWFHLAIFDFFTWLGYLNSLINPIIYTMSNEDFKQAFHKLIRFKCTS
Method in brief: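 Stably transfected human 5-HT1B cells were incubated 60 min at room temperature, after which detection reagent was applied for another 60 min at RT. The read-out was cAMP accumulation, used as a measure of agonist activity.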

[5] = target: T3, 5-HT1A receptor (Homo sapiens, UniProt P08908); assay: cell-based; conditions: for Emax: CHO, read-out: 5-HT1A % Act @ Max Dose; for EC50: CHO cells with Gα15
T3 construct: expressed in transfected cells; host or cells: CHO cells, stably transfected
T3 sequence (P08908 1-422): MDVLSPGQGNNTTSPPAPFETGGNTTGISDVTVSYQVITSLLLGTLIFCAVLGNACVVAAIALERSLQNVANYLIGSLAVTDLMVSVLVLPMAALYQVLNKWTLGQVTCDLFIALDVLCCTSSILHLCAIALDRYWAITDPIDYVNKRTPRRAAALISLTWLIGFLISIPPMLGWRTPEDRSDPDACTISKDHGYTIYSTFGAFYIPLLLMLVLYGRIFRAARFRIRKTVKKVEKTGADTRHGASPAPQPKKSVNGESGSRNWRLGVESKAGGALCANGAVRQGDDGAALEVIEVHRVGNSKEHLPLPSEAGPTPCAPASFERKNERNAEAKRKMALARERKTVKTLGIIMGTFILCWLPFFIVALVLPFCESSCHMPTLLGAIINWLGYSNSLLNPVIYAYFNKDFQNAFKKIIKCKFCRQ
Method in brief: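 Receptor agonism was assessed as intracellular calcium mobilization in stably transfected cells, with CHO cells additionally carrying Gα15 for the 5-HT1A readout. Calcium was monitored with Fluo-4 Direct dye.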

[6] = target: T4, 5-HT2A receptor (Homo sapiens, UniProt P28223); assay: cell-based; format: cell-based; design: expressed in transfected cells; host or cells: HEK293, stably transfected; conditions: for EC50: agonist, HEK293
T4 sequence (P28223 whole entry): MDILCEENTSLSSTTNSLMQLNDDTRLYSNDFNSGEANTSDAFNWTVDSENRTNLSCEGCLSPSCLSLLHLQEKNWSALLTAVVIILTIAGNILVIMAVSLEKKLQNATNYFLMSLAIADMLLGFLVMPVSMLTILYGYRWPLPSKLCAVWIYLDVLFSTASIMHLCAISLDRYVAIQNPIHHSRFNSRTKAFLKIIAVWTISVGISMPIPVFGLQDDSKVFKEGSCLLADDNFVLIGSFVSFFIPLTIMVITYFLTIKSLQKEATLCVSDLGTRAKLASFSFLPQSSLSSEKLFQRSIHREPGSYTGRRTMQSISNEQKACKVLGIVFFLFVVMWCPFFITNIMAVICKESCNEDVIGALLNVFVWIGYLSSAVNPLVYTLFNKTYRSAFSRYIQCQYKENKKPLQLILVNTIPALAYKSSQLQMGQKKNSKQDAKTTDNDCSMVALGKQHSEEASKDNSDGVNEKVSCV
Method in brief: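 Stable HEK293 (5-HT2A, 5-HT2B) or CHO/Gα15 (5-HT1A) cells; Fluo-4 Direct, probenecid 2.5 mM final; 50 min dye load, 37 °C, 5% CO2; agonist-mode Ca2+ flux, FLIPR Tetra.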

[7] = in vitro; format: in vitro ADME, mouse; conditions: for microsomal CLint: read-out: Intrinsic clearance (Clint); for half-life: read-out: half-life (t1/2)
From the text: MLM Stability Pooled MLM from male CD-1 mice (BIOIVT M00501) were used.

[8] = target: T4, 5-HT2A receptor; assay: cell-based; format: cell-based; conditions: for Emax: read-out: 5-HT2A Arrestin % Act @ Max Dose; for EC50: PathHunter, read-out: 5-HT2A Arrestin EC50
Method in brief: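 Agonist activity expressed as percent of maximal control ligand signal after vehicle subtraction, from chemiluminescence (RLU). Cells carry ProLink-tagged 5-HT2A plus β-arrestin fused to β-gal deletion mutant; ligand-driven arrestin binding restores β-galactosidase activity (PathHunter). Cells pre-incubated at 37° C.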

[9] = rat, microsomes, RLM (male Sprague-Dawley) 0.50 mg/mL, NADPH 1 mM, 1 μM compound, pH 7.4, 37° C., 60 min
[10] = HEK293, agonist, Ca2+ flux, HEK293, max dose, read-out: 5-HT2B % Act @ Max Dose
[11] = human, microsomes, HLM 0.50 mg/mL, NADPH 1 mM, 1 μM compound, pH 7.4, 37° C., 60 min
[12] = agonist, cAMP accumulation, max dose
[13] = agonist, Ca2+ flux, CHO cells with Gα15, max dose
[14] = HEK293, agonist, Ca2+ flux, HEK293, max dose, read-out: 5-HT2A % Act @ Max Dose
[15] = mouse, microsomes, MLM (male CD-1) 0.50 mg/mL, NADPH 1 mM, 1 μM compound, pH 7.4, 37° C., 60 min
[16] = RLM (male Sprague-Dawley) 0.50 mg/mL, NADPH 1 mM, 1 μM compound, pH 7.4, 37° C., 60 min
[17] = HLM 0.50 mg/mL, NADPH 1 mM, 1 μM compound, pH 7.4, 37° C., 60 min
[18] = agonist, beta-arrestin recruitment, max dose
[19] = MLM (male CD-1) 0.50 mg/mL, NADPH 1 mM, 1 μM compound, pH 7.4, 37° C., 60 min
[20] = agonist, beta-arrestin recruitment

Compound	microsomal CLint [1, 9] [µL/min/mg]	half-life [1, 9] [min]	Emax [2, 10] [%]	EC50 ([2]; agonist, Ca2+ flux) [nM]	microsomal CLint [3, 11] [µL/min/mg]	half-life [3, 11] [min]	EC50 ([4]; agonist, cAMP accumulation) [nM]	Emax [4, 12] [%]	Emax [5, 13] [%]	EC50 ([5]; agonist, Ca2+ flux) [nM]	Emax [6, 14] [%]	EC50 ([6]; Ca2+ flux) [nM]	microsomal CLint [7, 15] [µL/min/mg]	half-life [7, 15] [min]	Emax [8, 18] [%]	further results
CCN(CC)C(=O)[C@@H]1C=C2c3cccc4[nH]cc(c34)C[C@H]2N(Cc2ccon2)C1 [Compound 70, (6aR,9R)—N,N-diethyl-7-(isoxazol-3-ylmethyl)-4,6,6a,7,8,9-hexahydroindolo[4,3-fg]quinoline-9-carboxamide]	47.9	28.9	34.4	449	54.3	25.5	> 10000	17.8	58.6	62300	84.7	38	154	9		
CCN(CC)C(=O)[C@@H]1C=C2c3cccc4[nH]cc(c34)C[C@H]2N(C)C1 [LSD, lysergic acid diethylamide, reference compound]																half-life (t1/2) ([1]; rat, microsomes, pH 7.4): 60.2 min; Emax ([2]; HEK293, read-out: 5-HT2B % Act @ Max Dose): 19.3%; half-life (t1/2) ([3]; human, microsomes, pH 7.4): 71.6 min; Emax [4]: 98%; Emax [5]: 91.4%; Emax ([6]; HEK293, read-out: 5-HT2A % Act @ Max Dose): 108%; 5-HT2A arrestin agonist class [8]: partial agonists; Emax [8]: 52.6%; half-life (t1/2) ([7]; mouse, microsomes, pH 7.4): 31.3 min
CCN(CC)C(=O)[C@@H]1C=C2c3cccc4[nH]cc(c34)C[C@H]2N(Cc2cccc(C#N)c2)C1 [Compound 76, (6aR,9R)—N,N-diethyl-7-(3-cyanobenzyl)-4,6,6a,7,8,9-hexahydroindolo[4,3-fg]quinoline-9-carboxamide]	114	12.1	0.93	> 10000	64.1	21.6	1490	93.4	77	25400	82.1	6620	576	2.4		
CCN(CC)C(=O)[C@@H]1C=C2c3cccc4[nH]cc(c34)C[C@H]2N(CCc2ccccc2OC)C1 [Compound 11, (6aR,9R)—N,N-diethyl-7-(2-methoxyphenethyl)-4,6,6,7,8,9-hexahydroindolo[4,3-fg]quinoline-9-carboxamide]																stability in RLM [1]: much lower stability (higher clearance); Intrinsic clearance (Clint) [1, 16]: 1195.423 µL/min/mg; half-life (t1/2) [1, 16]: 1.159 min; 5-HT2B % Act @ Max Dose ([2]; agonist, Ca2+ flux, HEK293, max dose): 2.5%; stability in HLM [3]: much lower stability (higher clearance); Intrinsic clearance (Clint) [3, 17]: 584.336 µL/min/mg; half-life (t1/2) [3, 17]: 2.372 min; 5-HT2A Arrestin % Act @ Max Dose [8, 18]: 54.26%; stability in MLM [7]: much lower stability (higher clearance); Intrinsic clearance (Clint) [7, 19]: 1512.047 µL/min/mg; half-life (t1/2) [7, 19]: 0.917 min
CCN(C)C(=O)[C@@H]1C=C2c3cccc4[nH]cc(c34)C[C@H]2N(Cc2ccccc2)C1 [Compound 85, (6aR,9R)-7-benzyl-N-ethyl-N-methyl-4,6,6a,7,8,9-hexahydroindolo[4,3-fg]quinoline-9-carboxamide]	131	10.5	3.73	> 10000	95	14.6			36.8	> 10000	60.6	500	184	7.5		
CCN(CC)C(=O)[C@@H]1C=C2c3cccc4[nH]cc(c34)C[C@H]2N(Cc2cocn2)C1 [Compound 73, (6aR,9R)—N,N-diethyl-7-(oxazol-4-ylmethyl)-4,6,6a,7,8,9-hexahydroindolo[4,3-fg]quinoline-9-carboxamide]	51.8	26.8	60.9	375	45.6	30.4	1370	73.6	78.7	586	92.1	47.6	76.7	18.1		
CCN(CC)C(=O)[C@@H]1C=C2c3cccc4[nH]cc(c34)C[C@H]2N(Cc2ccc(Cl)cc2)C1 [Compound 50, (6aR,9R)-7-(4-chlorobenzyl)-N,N-diethyl-4,6,6a,7,8,9-hexahydroindolo[4,3-fg]quinoline-9-carboxamide]			2.94	> 10000	65	21.3	> 10000	41.9	8.23	> 10000	88.2	3240			41.2	EC50 [8, 20]: 34.7 nM
CC[C@@H](C)NC(=O)[C@@H]1C=C2c3cccc4[nH]cc(c34)C[C@H]2N(C)C1 [Int8]			17.7						90.2		96.2				46.1	half-life (t1/2) ([1]; rat, microsomes, pH 7.4): 99.5 min; half-life (t1/2) ([3]; human, microsomes, pH 7.4): 64.9 min; 5-HT2A arrestin agonist class ([8]; beta-arrestin recruitment): partial agonists; half-life (t1/2) ([7]; mouse, microsomes, pH 7.4): 39.9 min
CCN(CC)C(=O)[C@@H]1C=C2c3cccc4[nH]cc(c34)C[C@H]2N(Cc2ccc(F)cc2)C1 [Compound 49, (6aR,9R)—N,N-diethyl-7-(4-fluorobenzyl)-4,6,6a,7,8,9-hexahydroindolo[4,3-fg]quinoline-9-carboxamide]			3.58	> 10000	87.8	15.8	> 10000	37.9	14.3	> 10000	92.5	1590			39.4	EC50 [8, 20]: 7.68 nM
C=CCN1C[C@H](C(=O)N[C@H](C)CC)C=C2c3cccc4[nH]cc(c34)C[C@H]21 [Compound 8, (6aR,9R)-7-allyl-N—((R)-sec-butyl)-4,6,6a,7,8,9-hexahydroindolo[4,3-fg]quinoline-9-carboxamide]			91.6						116		99.2				112	stability in RLM [1]: much lower stability (higher clearance); half-life (t1/2) [1, 16]: 7.7 min; stability in HLM [3]: much lower stability (higher clearance); half-life (t1/2) [3, 17]: 7.9 min; 5-HT2A arrestin agonist class ([8]; beta-arrestin recruitment): full agonists; stability in MLM [7]: much lower stability (higher clearance); half-life (t1/2) [7, 19]: 3.7 min
